Assay results as given in ChEMBL document CHEMBL1201862, “PubChem BioAssay data set” (2004).
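Briefly, cells in 96-well plates were exposed to five compound concentrations for 48 h, and endpoints were estimated by linear interpolation. Abbreviation: GI50, concentration required for 50% inhibition of growth.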 Calls of active or inactive are those of the source. Rule as the data show it: active = GI50 up to about 1.1 µM and inactive = higher.

Key:
Test in all cases: NCI-60 cell line screen, 48 h
UACC-62 = system: UACC-62
HL-60 = system: HL-60
RPMI-8226 = system: RPMI-8226
SN12C = system: SN12C
M14 = system: M14
Malme-3M = system: Malme-3M
IGROV-1 = system: IGROV-1
RXF 393 = system: RXF 393
K562 = system: K562
OVCAR-3 = system: OVCAR-3
OVCAR-5 = system: OVCAR-5
SW-620 = system: SW-620
SF-295 = system: SF-295
EKVX = system: EKVX
786-0 = system: 786-0
DU-145 = system: DU-145
COLO 205 = system: COLO 205
SK-MEL-2 = system: SK-MEL-2
SNB-75 = system: SNB-75
SNB-19 = system: SNB-19
MDA-MB-435 = system: MDA-MB-435
A549 = system: A549
T47D = system: T47D
HCT-15 = system: HCT-15
NCI-H23 = system: NCI-H23
Hs-578T = system: Hs-578T
MDA-N = system: MDA-N
SF-268 = system: SF-268
PC-3 = system: PC-3
NCI-H522 = system: NCI-H522
CAKI-1 = system: CAKI-1
NCI-H226 = system: NCI-H226
HCC 2998 = system: HCC 2998
HCT-116 = system: HCT-116
LOX IMVI = system: LOX IMVI
A498 = system: A498
NCI-H460 = system: NCI-H460
UO-31 = system: UO-31
NCI/ADR-RES = system: NCI/ADR-RES
KM12 = system: KM12
U-251 = system: U-251
BT-549 = system: BT-549
HT-29 = system: HT-29
OVCAR-4 = system: OVCAR-4
TK-10 = system: TK-10
MCF7 = system: MCF7
HOP-62 = system: HOP-62
SK-MEL-5 = system: SK-MEL-5
SK-MEL-28 = system: SK-MEL-28
MOLT-4 = system: MOLT-4
UACC-257 = system: UACC-257
MDA-MB-231 = system: MDA-MB-231
ACHN = system: ACHN
OVCAR-8 = system: OVCAR-8
HOP-92 = system: HOP-92
SK-OV-3 = system: SK-OV-3
SF-539 = system: SF-539

Compound: COP(=O)(/C=C/C(NC(=O)C(Cl)(Cl)Cl)c1ccccc1)OC (stereo unspecified)
- GI50 (UACC-62): > 100 µM (inactive)
- GI50 (HL-60): > 100 µM (inactive)
- GI50 (RPMI-8226): > 100 µM (inactive)
- GI50 (SN12C): > 100 µM (inactive)
- GI50 (M14): > 100 µM (inactive)
- GI50 (Malme-3M): > 100 µM (inactive)
- GI50 (IGROV-1): > 100 µM (inactive)
- GI50 (RXF 393): > 100 µM (inactive)
- GI50 (K562): > 100 µM (inactive)
- GI50 (OVCAR-3): > 100 µM (inactive)
- GI50 (OVCAR-5): > 100 µM (inactive)
- GI50 (SW-620): > 100 µM (inactive)
- GI50 (SF-295): > 100 µM (inactive)
- GI50 (EKVX): > 100 µM (inactive)
- GI50 (786-0): > 100 µM (inactive)
- GI50 (DU-145): > 100 µM (inactive)
- GI50 (COLO 205): > 100 µM (inactive)
- GI50 (SK-MEL-2): > 100 µM (inactive)
- GI50 (SNB-75): > 100 µM (inactive)
- GI50 (SNB-19): > 100 µM (inactive)
- GI50 (MDA-MB-435): > 100 µM (inactive)
- GI50 (A549): > 100 µM (inactive)
- GI50 (T47D): > 100 µM (inactive)
- GI50 (HCT-15): > 100 µM
- GI50 (NCI-H23): > 100 µM (inactive)
- GI50 (Hs-578T): > 100 µM (inactive)
- GI50 (MDA-N): > 100 µM (inactive)
- GI50 (SF-268): > 100 µM (inactive)
- GI50 (PC-3): > 100 µM (inactive)
- GI50 (NCI-H522): > 100 µM (inactive)
- GI50 (CAKI-1): > 100 µM (inactive)
- GI50 (NCI-H226): > 100 µM (inactive)
- GI50 (HCC 2998): > 100 µM (inactive)
- GI50 (HCT-116): > 100 µM (inactive)
- GI50 (LOX IMVI): > 100 µM (inactive)
- GI50 (A498): > 100 µM (inactive)
- GI50 (NCI-H460): > 100 µM (inactive)
- GI50 (UO-31): > 100 µM (inactive)
- GI50 (NCI/ADR-RES): > 100 µM (inactive)
- GI50 (KM12): > 100 µM (inactive)
- GI50 (U-251): > 100 µM (inactive)
- GI50 (BT-549): > 100 µM (inactive)
- GI50 (HT-29): > 100 µM (inactive)
- GI50 (OVCAR-4): > 100 µM (inactive)
- GI50 (TK-10): > 100 µM (inactive)
- GI50 (MCF7): > 100 µM (inactive)
- GI50 (HOP-62): > 100 µM (inactive)
- GI50 (SK-MEL-5): > 100 µM (inactive)
- GI50 (SK-MEL-28): > 100 µM (inactive)
- GI50 (MOLT-4): > 100 µM (inactive)
- GI50 (UACC-257): > 100 µM (inactive)
- GI50 (MDA-MB-231): > 100 µM (inactive)
- GI50 (ACHN): > 100 µM (inactive)
- GI50 (OVCAR-8): > 100 µM (inactive)
- GI50 (HOP-92): > 100 µM (inactive)
- GI50 (SK-OV-3): > 100 µM (inactive)

Compound: O=C(/C=C/c1ccccc1)CCC1C(=O)NC(=O)NC1=O
- GI50 (UACC-62): > 100 µM (inactive)
- GI50 (HL-60): > 100 µM (inactive)
- GI50 (RPMI-8226): 43.4 µM (inactive)
- GI50 (SN12C): > 100 µM (inactive)
- GI50 (M14): > 100 µM (inactive)
- GI50 (Malme-3M): > 100 µM (inactive)
- GI50 (IGROV-1): > 100 µM (inactive)
- GI50 (K562): 97.9 µM (inactive)
- GI50 (OVCAR-3): > 100 µM (inactive)
- GI50 (OVCAR-5): > 100 µM (inactive)
- GI50 (SW-620): > 100 µM (inactive)
- GI50 (SF-295): > 100 µM (inactive)
- GI50 (EKVX): > 100 µM (inactive)
- GI50 (SF-539): > 100 µM (inactive)
- GI50 (786-0): > 100 µM (inactive)
- GI50 (DU-145): > 100 µM (inactive)
- GI50 (COLO 205): > 100 µM (inactive)
- GI50 (SK-MEL-2): > 100 µM (inactive)
- GI50 (SNB-75): > 100 µM (inactive)
- GI50 (SNB-19): > 100 µM (inactive)
- GI50 (MDA-MB-435): > 100 µM (inactive)
- GI50 (A549): > 100 µM (inactive)
- GI50 (T47D): > 100 µM (inactive)
- GI50 (HCT-15): > 100 µM
- GI50 (NCI-H23): > 100 µM (inactive)
- GI50 (Hs-578T): > 100 µM (inactive)
- GI50 (MDA-N): > 100 µM (inactive)
- GI50 (SF-268): > 100 µM (inactive)
- GI50 (PC-3): > 100 µM (inactive)
- GI50 (NCI-H522): > 100 µM (inactive)
- GI50 (CAKI-1): > 100 µM (inactive)
- GI50 (NCI-H226): > 100 µM (inactive)
- GI50 (HCC 2998): > 100 µM (inactive)
- GI50 (HCT-116): > 100 µM (inactive)
- GI50 (LOX IMVI): > 100 µM (inactive)
- GI50 (A498): > 100 µM (inactive)
- GI50 (NCI-H460): > 100 µM (inactive)
- GI50 (UO-31): > 100 µM (inactive)
- GI50 (NCI/ADR-RES): > 100 µM (inactive)
- GI50 (KM12): > 100 µM (inactive)
- GI50 (U-251): > 100 µM (inactive)
- GI50 (BT-549): > 100 µM (inactive)
- GI50 (HT-29): > 100 µM (inactive)
- GI50 (OVCAR-4): > 100 µM (inactive)
- GI50 (TK-10): > 100 µM (inactive)
- GI50 (MCF7): > 100 µM (inactive)
- GI50 (SK-MEL-5): > 100 µM (inactive)
- GI50 (SK-MEL-28): > 100 µM (inactive)
- GI50 (MOLT-4): 35.7 µM (inactive)
- GI50 (UACC-257): > 100 µM (inactive)
- GI50 (MDA-MB-231): > 100 µM (inactive)
- GI50 (ACHN): > 100 µM (inactive)
- GI50 (OVCAR-8): > 100 µM (inactive)
- GI50 (HOP-92): > 100 µM (inactive)
- GI50 (SK-OV-3): > 100 µM (inactive)
